Experimental data reported in US20240174629A1 (OTCPHARM JSC, priority 2021, published 2024).
Values after ≈ are worked out from the molar mass of the structure shown.

test: not given; conditions: not given

melting point [°C] | Compound
182 to 184 | COC(=O)c1c(N(Cc2ccccc2C)C(C)=O)sc2c(Cl)c(O)ccc12
185 to 190 | CC(=O)N(Cc1ccccc1)c1sc2cc(O)ccc2c1C(=O)OC(C)(C)C
164 to 168 | COC(=O)c1c(N(Cc2ccccc2C)C(C)=O)sc2cc(O)ccc12
230 to 234 | CC(=O)N(Cc1ccccc1F)c1sc2c(Cl)c(O)ccc2c1C(=O)O
145 to 147 | CCOC(=O)c1c(N(Cc2ccc(C)cc2)C(C)=O)sc2cc(O)ccc12
145 to 147 | CNC(=O)c1c(N(Cc2ccccc2)C(C)=O)sc2c(CN(C)C)c(O)ccc12
160 to 164 | COC(=O)c1c(N(Cc2ccc(C)cc2)C(C)=O)sc2cc(O)ccc12
170 to 172 | CCOC(=O)c1c(N(Cc2ccc(C)cc2)C(C)=O)sc2c(Cl)c(O)ccc12
210 to 212 | COC(=O)c1c(N(Cc2cccc3ccccc23)C(C)=O)sc2c(Cl)c(O)ccc12
150 to 155 | COC(=O)c1c(N(CCc2ccccc2)C(C)=O)sc2c(Cl)c(O)ccc12
176 to 178 | CC(=O)N(Cc1ccccc1)c1sc2c(Cl)c(O)ccc2c1C#N
168 to 172 | COC(=O)c1c(N(Cc2ccccc2C#N)C(C)=O)sc2cc(O)ccc12
140 to 145 | CC(=O)N(Cc1ccccc1F)c1sc2cc(O)ccc2c1C(=O)O
182 to 186 | COC(=O)c1c(N(Cc2ccccc2C(F)(F)F)C(C)=O)sc2c(Cl)c(O)ccc12
165 to 169 | COC(=O)c1c(N(Cc2ccccc2C(F)(F)F)C(C)=O)sc2cc(O)ccc12
195 to 197 | COC(=O)c1c(N(Cc2ccc(C)cc2)C(C)=O)sc2c(Cl)c(O)ccc12
200 to 202 | COC(=O)c1c(N(Cc2ccc3ccccc3c2)C(C)=O)sc2cc(O)ccc12
174 to 176 | CCOC(=O)c1c(N(Cc2ccc(Cl)cc2)C(C)=O)sc2c(Cl)c(O)ccc12
229 to 233 | COC(=O)c1c(N(Cc2ccccc2Cl)C(C)=O)sc2c(Cl)c(O)ccc12
204 to 208 | COC(=O)c1c(N(Cc2ccccc2C#N)C(C)=O)sc2c(Cl)c(O)ccc12
172 to 174 | COC(=O)c1c(N(CCc2ccccc2F)C(C)=O)sc2c(Cl)c(O)ccc12
183 to 185 | COC(=O)c1c(N(CCc2ccccc2F)C(C)=O)sc2cc(O)ccc12
145 to 150 | COC(=O)c1c(N(Cc2cccc(F)c2)C(C)=O)sc2cc(O)ccc12
220 to 224 | CC(=O)N(Cc1ccc(F)cc1)c1sc2c(Cl)c(O)ccc2c1C(=O)O
176 to 180 | CCOC(=O)c1c(N(Cc2ccccc2Cl)C(C)=O)sc2cc(O)ccc12
172 to 176 | CCOC(=O)c1c(N(Cc2ccc(Cl)cc2)C(C)=O)sc2cc(O)ccc12

Compound | melting point [°C]
CNC(=O)c1c(N(Cc2ccccc2Cl)C(C)=O)sc2c(Cl)c(O)ccc12 [Example 74, 2-[acetyl(2-chlorobenzyl)amino]-7-chloro-6-hydroxy-N-methyl-1-benzothiophene-3-carboxamide] | 200 to 202
COC(=O)c1c(N(Cc2ccc(F)cc2F)C(C)=O)sc2c(Cl)c(O)ccc12 [Example 29, Methyl 2-[acetyl(2,4-difluorobenzyl)amino]-7-chloro-6-hydroxy-1-benzothiophene-3-carboxylate] | 205 to 210
COC(=O)c1c(N(Cc2ccc(F)cc2)C(C)=O)sc2c(CN(C)C)c(O)ccc12 | 145 to 149

test: Cytotoxicity, microtetrazolium test (MTT); conditions: dog, MDCK cells, CC50 (MDCK), mean ±SD

Compound | CC50 at 48 h [µg/mL]
CNC(=O)c1c(N(Cc2ccccc2Cl)C(C)=O)sc2c(Cl)c(O)ccc12 [Example 74, 2-[acetyl(2-chlorobenzyl)amino]-7-chloro-6-hydroxy-N-methyl-1-benzothiophene-3-carboxamide] | 32 ± 4 (≈ 75.6 µM)
COC(=O)c1c(N(Cc2ccc(F)cc2F)C(C)=O)sc2c(Cl)c(O)ccc12 [Example 29, Methyl 2-[acetyl(2,4-difluorobenzyl)amino]-7-chloro-6-hydroxy-1-benzothiophene-3-carboxylate] | > 300
COC(=O)c1c(N(Cc2ccccc2)C(C)=O)sc2c(Cl)c(O)ccc12 [Example 3, Methyl 2-[acetyl(benzyl)amino]-7-chloro-6-hydroxy-1-benzothiophene-3-carboxylate] | 4.5 ± 0.3 (≈ 11.5 µM)
CC(=O)N(Cc1ccccc1)c1sc2cc(O)ccc2c1C#N [Example 47, N-benzyl-N-(3-cyano-6-hydroxy-1-benzothiophene-2-yl)acetamide] | 16.8 ± 1.5 (≈ 52.1 µM)
